This passage reports melting point results from a melting point compilation (Tetko et al.; mined from patent text by program, amines drawn as free bases though some values may be those of a salt).

By melting point is commonly meant the temperature, or range, at which the solid turns liquid. As for `COc1cc(N)c(Cl)cc1C(=O)NC1CCN(C(=O)OC(C)(C)C)CC1F` (configuration not stated), the melting point lay within 198 to 199 °C. In turn, `CC(C)(CO)NC(=O)c1nn(-c2ccc(Br)cc2)c2c1C1CCC2C1` (configuration not stated) registered a melting point of 184 to 186 °C. The compound `O=C1CCC(N2C(=O)c3cccc(NC(=O)Cc4ccccc4)c3C2=O)C(=O)N1` (configuration not stated) showed a melting point of 217 to 218 °C. Then `C=C(C)c1c(C)oc2c(NC(=O)c3c(Cl)cccc3Cl)cccc12`, with 147 to 148 °C; and `COC(=O)C1=Cc2cc(-c3ccc(N4CCCCC4)cc3)ccc2S(=O)(=O)CC1`, with 202 to 204 °C; and `COCCN(C)Cc1c(-c2ccc(NC(=O)NOC)cc2)sc2c1c(=O)n(-c1ccccc1)c(=O)n2Cc1c(F)cccc1F`, with 161 to 163 °C. For `CCOc1cccc(NC(=O)Nc2ccc(N3CCN(C(=O)Nc4cc(OCCO)ccc4Cl)CC3)nc2)c1`, the melting point lay within 140 to 143 °C.

In turn, `Cc1ncn(CCCOc2c(C)cc(-c3nnn(C)n3)cc2C)n1` showed a melting point of 101 to 103 °C. Under `COCCOc1cc(OC)c2c(=O)[nH]c(-c3ccnc(C)c3)nc2c1` stands 260 to 262 °C; under `CC(c1oc2ccccc2c(=O)c1-c1cccc(F)c1)n1nc(-c2cccc3c2oc2ccccc23)c2c(N)ncnc21` (configuration not stated), 238 to 240 °C. Under `O=c1[nH]c2scnc2c2ccccc12` stands above 200 °C; under `CC(=O)Nc1nc(-c2cccnc2)c(-c2ccccc2)s1`, 264 to 267 °C; under `CC(S(=O)(=O)c1ccc(OC(F)(F)F)cc1)S(=O)(=O)C(F)(F)F` (configuration not stated), 77 to 80 °C.

As for `CC(O)CNCc1cc2c(=O)c(C(=O)NCc3ccc(Cl)cc3)cn(C)c2o1` (configuration not stated), the melting point was in the range of 172 to 173 °C. `O=S(CCCCCl)Cc1ccc(Cl)cc1` (configuration not stated) registered a melting point of 56 to 58 °C. As for `CCC(CC)CNc1cccc(-c2ccnc3c(C(=O)c4cccs4)cnn23)c1`, the melting point is 192 to 194 °C. `N#CCc1cc(N)c(F)cc1Cl` yielded a melting point of 85 to 86 °C. Compound `COc1ccc(-c2nc(C)c(-c3cccnc3)n2O)cc1OC` came in with a melting point of 131 to 135 °C. Under `Cn1nc2n(c1=O)-c1ccc(Cl)nc1C(c1ccccc1Cl)=NC2` stands 200 to 202 °C; under `CCCCCCN(CCC12CC3CC(CC(C3)C1)C2)C(=O)NCCCc1ccncc1`, 120 to 122 °C; under `CC(Oc1ncn(-c2ccc(Cl)c(Cl)c2)n1)C(=O)O` (configuration not stated), 222 to 224 °C.

For `COc1cc(OC)c([C@@H]2CCN(C)C[C@H]2O)c(OC)c1` (relative stereo), the melting point was 96 to 97 °C.

`COCCNC(=O)c1ccc(N2CCC(N3C(=O)OCc4ccccc43)CC2)c([N+](=O)[O-])c1` registered a melting point of 192 to 193 °C. Then `CC(CCCc1ccc(F)cc1)c1cc(O)c2c3c(c(=O)oc2c1)CCC3` (configuration not stated), with 133 to 135 °C; and `CC(C)CC(=O)Nc1cccc(-c2ccnc3c(-c4cccc(CN5CCN(C)CC5)c4)cnn23)c1`, with 135 to 138 °C; and `OCC1OC(n2cnc3c(Nc4ccccc4)ncnc32)CC1F` (configuration not stated), with 83 °C. With `COc1ccc2c(c1)C(Cc1ccnc(F)c1)(Cc1ccnc(F)c1)c1cccnc1O2`, the melting point fell in the range of 196 to 197 °C. Under `CCCC1=C(C(=O)OCC)C(c2ccccc2Cl)c2c[nH]nc2N1` (configuration not stated) stands 202 to 205 °C; under `O=c1[nH]c2ccc(C(F)(F)F)cc2c2c1c(=O)oc1ccc(Cl)cc12`, above 250 °C.

`CC(=O)OC1CSC(Oc2cccc(-c3cccs3)c2)C(OC(C)=O)C1OC(C)=O` (configuration not stated) gave a melting point of 122 to 123 °C. With `ClC1c2ccccc2C=Cc2ccc(Br)cc21` (configuration not stated), the melting point was found to be 146 °C. Under `COc1cn(-c2cccc(N3CCOCC3)c2F)nc(-c2ccnn2-c2ccccc2)c1=O` stands 187 to 189 °C. The compound `CCOC(=O)C(CC)Oc1ccccc1C(C)=O` (configuration not stated) gave a melting point of 43 to 45 °C. In turn, `CC(=O)OCC(=O)C1=CCC2C3CCC4=CC(=O)C=CC4(C)C3(F)C(OC(C)=O)CC12C` (configuration not stated) showed a melting point of 294 to 296 °C.

Compound `COc1cccc(C(=O)CCCN2CCC(O)(c3ccc(Cl)cc3)CC2)c1` gave a melting point of 127 to 129 °C. On to `Cc1c(F)ccc(C(=O)O)c1F`, for which the melting point lay in the range of 168 to 170 °C. The compound `O=C(NCCOC1CCCCO1)c1cc([N+](=O)[O-])cc([N+](=O)[O-])c1N(CCO)CCBr` (configuration not stated) gave a melting point of 121 to 123 °C.

As to `O=C(NCCSc1ccncc1)c1ccccc1CO`, the melting point is 132 to 133 °C. Then `NC(=O)c1ccc(C(F)(F)F)cc1N1CCc2nc(NS(=O)(=O)c3cc(C(F)(F)F)cc(C(F)(F)F)c3)sc2C1`, with 225 to 228 °C; and `Nc1c(Cl)cc(C(=O)Cl)cc1Cl`, with 165 °C; and `OC(c1ccc(Br)cc1)c1ccc(Br)cc1`, with 112 to 113 °C. Under `Fc1ccccc1-c1ccc(Cl)nn1` stands 95 to 96 °C; under `Nc1cc(C(=O)O)cc(S(N)(=O)=O)c1Nc1ccccc1`, 251 °C; under `Nc1cccc(Oc2cccc3cccnc23)c1`, 98 to 100 °C.

The compound `O=C1CCOc2ccc(OCc3ccc4ccc(Cl)cc4n3)cc21` had a melting point of 163 to 164 °C.

For the compound `CC(=O)Nc1ccc(N2CCN(c3ccc(O)cc3)CC2)cc1`, the melting point stood at 256 °C. Under `COCc1cnc2c(NC(=O)c3c(Cl)cccc3Cl)ccc(C)c2c1-n1ccnc1` stands 179 to 180 °C; under `COC(=O)Cc1ccc(OCC2CN(c3ccc(C#N)cc3)C(=O)O2)cc1` (configuration not stated), 114 to 115 °C. Then `O=C1NCN(c2ccccc2)C12CCN(C[C@@H]1CCc3ccccc3[C@H]1O)CC2` (relative stereo), with 204 to 205 °C; and `O=S1(=O)NC(C2CCCCC2)Nc2cc3c(cc21)OCCO3` (configuration not stated), with 196 to 200 °C; and `COc1ccc(C(=O)Nc2ccc(F)c(F)c2)cc1NCc1cccs1`, with 172 to 174 °C. The compound `NS(=O)(=O)c1cscn1` returned a melting point of 142 to 146 °C. Consider `CSc1nccc(C)c1NC(=O)CCCCCSc1nc2ccccc2o1`, for which the melting point lay within 122 to 124 °C. In turn, `CN1C(=O)CC[C@]2(C)c3ccc(-c4ccc(Cl)cc4Cl)cc3CC[C@@H]12` had a melting point of 45 to 48 °C. The compound `O=C(O)c1cnc2cc(I)ccc2n1` returned a melting point of 242 to 244 °C.

As to `COC(=O)Cc1nn(Cc2ccc(Br)cc2F)c(=O)c2ccccc12`, the melting point was in the range of 151 to 153 °C. In the case of `Cc1oc(-c2ccccc2)nc1COc1ccc(CON=C(CCC(=O)O)c2ccco2)cc1`, the melting point lay in the range of 124 to 125 °C.

With `c1ccc(-c2cccc(N(c3ccccc3)c3ccc4c(c3)Oc3ccc(N(c5ccccc5)c5cccc(-c6ccccc6)c5)cc3O4)c2)cc1`, the melting point is 232 °C. Under `Cc1noc(NS(=O)(=O)c2ccccc2-c2ccc(-c3ccccn3)cc2)c1C` stands 85 to 90 °C. Consider `Cn1c([N+](=O)[O-])cnc1COc1ccc([N+](=O)[O-])cc1`, for which the melting point came to 150 °C.

Regarding `Cc1cccc(Cn2c(NC3CCN(CCNc4ncccn4)CC3)nc3cccnc32)n1`, the melting point is 187 °C. Compound `NC1=C(c2cccc(C(F)(F)F)c2)C(=O)C(c2ccccc2)C1` (configuration not stated) yielded a melting point of 205 to 206 °C.
